Consider two molecules from patent US5939318A, “Cholesterol disposal fusion enzymes” (Regents of the University of California, priority 1996, dated 1999).

One test has as its target T1, cytochrome P450scc (Bos taurus, UniProt P00189).
T1 sequence (P00189 40-520): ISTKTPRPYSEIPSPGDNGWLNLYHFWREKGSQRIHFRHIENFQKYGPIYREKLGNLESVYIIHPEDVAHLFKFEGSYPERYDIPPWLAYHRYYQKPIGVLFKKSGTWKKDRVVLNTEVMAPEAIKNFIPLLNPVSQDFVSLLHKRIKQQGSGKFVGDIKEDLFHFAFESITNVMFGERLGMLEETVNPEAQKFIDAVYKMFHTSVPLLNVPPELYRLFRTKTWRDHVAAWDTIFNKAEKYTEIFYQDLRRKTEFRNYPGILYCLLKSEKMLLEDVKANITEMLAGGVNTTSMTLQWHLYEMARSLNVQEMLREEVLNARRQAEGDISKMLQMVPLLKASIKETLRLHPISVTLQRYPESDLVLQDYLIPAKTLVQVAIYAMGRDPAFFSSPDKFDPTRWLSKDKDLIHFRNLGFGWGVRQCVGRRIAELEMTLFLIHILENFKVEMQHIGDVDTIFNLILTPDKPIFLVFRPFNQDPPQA
Conditions: Morisaki et al 1980; cited from earlier work.

The target in test [1] is human P450scc (SEQ ID NO: 2), natural three-component system co-expressed with adrenodoxin and adrenodoxin reductase (Homo sapiens, UniProt P05108). Conditions: substrate 0.5 to 5.0 μM, 24 h incubation, triply transfected COS-1 cells. On the procedure: (§1) Cells were maintained at 37° C. in 5% CO2.
human P450scc (SEQ ID NO: 2), natural three-component system co-expressed with adrenodoxin and adrenodoxin reductase, sequence (P05108 40-521 I301M): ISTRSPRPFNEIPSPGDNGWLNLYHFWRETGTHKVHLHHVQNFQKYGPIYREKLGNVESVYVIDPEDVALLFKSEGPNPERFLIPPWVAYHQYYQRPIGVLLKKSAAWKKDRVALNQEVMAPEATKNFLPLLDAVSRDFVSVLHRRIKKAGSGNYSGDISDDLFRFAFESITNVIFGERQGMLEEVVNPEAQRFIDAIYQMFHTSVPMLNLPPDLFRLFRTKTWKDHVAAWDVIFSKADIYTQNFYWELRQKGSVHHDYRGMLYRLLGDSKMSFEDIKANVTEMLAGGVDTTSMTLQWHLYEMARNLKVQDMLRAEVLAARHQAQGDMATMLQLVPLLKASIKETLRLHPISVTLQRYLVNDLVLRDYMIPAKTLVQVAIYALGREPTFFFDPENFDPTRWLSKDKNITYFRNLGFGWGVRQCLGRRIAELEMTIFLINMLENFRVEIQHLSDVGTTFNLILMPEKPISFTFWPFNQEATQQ
(§2) All samples were assayed in triplicate.

Test [2] has as its target fusion enzyme F2, H3N-P450scc-AdRed-Adx-COOH (human P450scc, adrenodoxin reductase 18- form, adrenodoxin) (Homo sapiens, UniProt P05108+P22570). The settings on record: substrate 0.5 to 5.0 μM, 24 h incubation, F2-transfected COS-1 cells. On the procedure:
as §1, §2

The structures appear in SMILES notation.

As usually defined, the Km is the concentration of substrate that gives half-maximal velocity.

fusion enzyme F2, H3N-P450scc-AdRed-Adx-COOH (human P450scc, adrenodoxin reductase 18- form, adrenodoxin), sequence (P05108+P22570 fused): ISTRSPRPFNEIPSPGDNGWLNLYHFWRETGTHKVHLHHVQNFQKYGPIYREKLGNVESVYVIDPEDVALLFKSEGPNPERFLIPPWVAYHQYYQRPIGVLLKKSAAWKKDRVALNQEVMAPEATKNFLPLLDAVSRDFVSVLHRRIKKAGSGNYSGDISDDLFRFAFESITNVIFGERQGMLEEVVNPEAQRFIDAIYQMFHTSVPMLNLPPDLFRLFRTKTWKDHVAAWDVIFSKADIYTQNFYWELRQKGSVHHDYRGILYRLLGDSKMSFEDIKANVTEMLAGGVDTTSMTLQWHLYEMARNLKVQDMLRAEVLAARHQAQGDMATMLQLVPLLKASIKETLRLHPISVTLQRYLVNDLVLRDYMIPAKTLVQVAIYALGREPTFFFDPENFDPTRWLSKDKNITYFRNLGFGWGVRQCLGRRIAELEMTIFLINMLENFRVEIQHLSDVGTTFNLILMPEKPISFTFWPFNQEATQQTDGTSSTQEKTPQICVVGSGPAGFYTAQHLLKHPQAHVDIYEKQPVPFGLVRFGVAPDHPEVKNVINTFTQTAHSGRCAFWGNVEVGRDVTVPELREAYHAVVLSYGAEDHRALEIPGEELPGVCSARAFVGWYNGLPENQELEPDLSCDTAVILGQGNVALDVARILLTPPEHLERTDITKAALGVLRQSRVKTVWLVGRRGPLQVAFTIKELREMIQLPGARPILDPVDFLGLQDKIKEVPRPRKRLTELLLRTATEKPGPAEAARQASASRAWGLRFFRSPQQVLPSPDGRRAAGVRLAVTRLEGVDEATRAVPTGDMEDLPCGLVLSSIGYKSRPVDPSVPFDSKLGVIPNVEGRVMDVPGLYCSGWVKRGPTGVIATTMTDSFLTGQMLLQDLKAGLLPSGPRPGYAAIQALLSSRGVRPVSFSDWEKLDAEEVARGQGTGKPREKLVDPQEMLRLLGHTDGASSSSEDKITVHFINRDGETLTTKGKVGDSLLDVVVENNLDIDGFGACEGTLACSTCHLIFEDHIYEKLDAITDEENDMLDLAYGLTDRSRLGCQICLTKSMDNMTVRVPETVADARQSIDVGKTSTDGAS

In the case of `CC(C)CCC[C@@H](C)[C@H]1CC[C@H]2[C@@H]3CC=C4C[C@@H](O)CC[C@]4(C)[C@H]3CC[C@]12C` [cholesterol], the “turnover (cholesterol converted per enzyme)” value at cytochrome P450scc is “about 1 mole of cholesterol per mole of enzyme per second”.
For the molecule `CC(C)CC[C@@H](O)[C@@H](C)[C@H]1CC[C@H]2[C@@H]3CC=C4C[C@@H](O)CC[C@]4(C)[C@H]3CC[C@]12C` [22R-hydroxycholesterol], the results for the Vmax in test [1] and in test [2] (pregnenolone in culture medium) were 1.7 ng pregnenolone/ml of culture medium/24 h and 9.1 ng/ml/24 h, respectively. Further, the Michaelis constant (Km) in test [1] (dose-response data) came out at 0.37 µM; in test [2] it was 2.85 µM.
